This series deals with Yap1 mRNA. Description: Antisense inhibition of human Yap1 in SNU-449 cells by modified oligonucleotides, single dose (Example 5, RTS36584). It is filed as cell-based. In short, it runs like this: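 Free uptake, 2,000 nM, ~48 h, SNU-449 at 10,000 cells/well. Read-out: qRT-PCR (RTS36584), RIBOGREEN-normalised, expressed as % UTC. Asterisk = oligo hits amplicon region.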
Setting [1] is: Table 45, Yap1 mRNA as percent of untreated control, SNU-449 cells, single dose.
[2] abbreviates: Table 43 experiment, SNU-449 cells, 10,000 cells per well, free uptake, 2,000 nM, approximately 48 hours, RTS36584, Yap1 mRNA normalized to RIBOGREEN, relative to untreated control cells.
Where [3] appears, read: Table 41, SNU-449 cells, 10,000 cells per well, free uptake, 2,000 nM modified oligonucleotide, approximately 48 hours, RTS36584, normalized to RIBOGREEN, Yap1 mRNA relative to untreated control cells.
Where [4] appears, read: Table 51, Yap1 mRNA remaining as percent of untreated control (UT), SNU-449 cells, single dose.
Setting [5] is: Table 46, Yap1 mRNA as percent of untreated control, SNU-449 cells, single dose.
[6] abbreviates: Table 50, Yap1 mRNA remaining as percent of untreated control (UT), SNU-449 cells, single dose.
Setting [7] is: Table 44 experiment, SNU-449 cells, 10,000 cells per well, free uptake, 2,000 nM, approximately 48 hours, RTS36584, Yap1 mRNA normalized to RIBOGREEN, relative to untreated control cells.
The mark [8] stands for this setting: Table 42 (separate experiment), SNU-449 cells, 10,000 cells per well, free uptake, 2,000 nM modified oligonucleotide, approximately 48 hours, RTS36584, normalized to RIBOGREEN, Yap1 mRNA relative to untreated control cells.
Setting [9] is: Table 39, SNU-449 cells, 10,000 cells per well, free uptake, 2,000 nM oligonucleotide, approx. 48 hours, RTS36584, normalized to RIBOGREEN, Yap1 mRNA relative to untreated control.
Setting [10] is: Table 48, Yap1 mRNA level relative to untreated control, modified oligonucleotides targeting SEQ ID NO.: 1 and 2.
Setting [11] is: Table 40 (separate experiment), SNU-449 cells, 10,000 cells per well, free uptake, 2,000 nM oligonucleotide, approx. 48 hours, RTS36584, normalized to RIBOGREEN, Yap1 mRNA relative to untreated control.

Strand notation (5' to 3'): a small letter for the sugar, then the base; units joined by * are phosphorothioate-linked, units joined directly phosphodiester-linked; [ ] holds rarer units or linkages, { } end groups; capitals alone tell only the bases. e = 2'-O-(2-methoxyethyl) (MOE); k = constrained ethyl (cEt); [5mC] = 5-methylcytosine; d = 2'-deoxy (DNA); m = 2'-O-methyl

The values that follow come from patent US11214803B2, “Modulators of YAP1 expression” (Ionis Pharmaceuticals, Inc., priority 2019, dated 2022).

Take “1198952 (kT*kA*dA*dT*dA*dT*dT*dG*d[5mC]*dA*kA*kT*d[5mC]*kT*dG*kT; antisense) [Compound 1198952]”: the “YAP1 (% UTC)” value under setting [1] came out at 77 % UTC.
“1198272 (kT*kT*dT*dA*dA*dA*dG*dT*dG*dT*dA*eT*eG*eT*k[5mC]*kA; antisense) [Compound 1198272]”: the “YAP1 (% UTC)” value under setting [2] is 37 % UTC.
Take “1198934 (kA*kT*dT*dT*dA*dG*dG*dA*dT*dG*d[5mC]*kA*dT*kG*dG*kT; antisense) [Compound 1198934]”: under setting [1], the “YAP1 (% UTC)” value is 56 % UTC.
The same measure, in the same setting: the value for “1198936 (kA*kG*dA*dT*dT*dT*dA*dG*dG*dA*dT*kG*d[5mC]*kA*dT*kG; antisense) [Compound 1198936]” was 38 % UTC.
Consider “1198670 (antisense kT*kT*dA*dG*dG*dA*dT*dG*d[5mC]*dA*dT*dG*kG*eT*kT*eT) [Compound 1198670]”, for which the “YAP1 (% UTC)” value under setting [3] was 55 % UTC.
As to “1200866 (kA*kG*kT*dA*dA*mG*dG*dT*dT*dT*d[5mC]*d[5mC]*d[5mC]*kA*kG*kA; antisense) [Compound 1200866]”, the “YAP1 (% UT)” value (Table 52, Yap1 mRNA, modified oligonucleotides targeting SEQ ID NO: 1 and 2) came to 41 % UT.
Regarding “1197310 (kT*kA*kT*dG*mU*dA*dA*dT*dA*dT*dT*dG*d[5mC]*kA*kA*kT; antisense) [Compound 1197310]”, under setting [4], the “YAP1 (% UT)” value worked out at 109 % UT.
Consider “1095425 (antisense kT*kG*dA*dG*dG*dT*dA*dT*dA*dA*d[5mC]*kT*eG*kG*eG*k[5mC]) [Compound 1095425]”, for which the “YAP1 (% UT)” value under setting [5] was 57 % UT.
Regarding “1198561 (antisense kG*kG*kT*dA*dT*dA*dA*d[5mC]*dT*dG*dG*dG*k[5mC]*kA*kA*eA) [Compound 1198561]”, the “YAP1 (% UT)” value under setting [6] is listed as 29 % UT.
Turning to “1198503 (k[5mC]*kA*dG*dA*dT*dT*dT*dA*dG*dG*dA*eT*kG*e[5mC]*kA*eT; antisense) [Compound 1198503]”, the “YAP1 (% UTC)” value under setting [7] came out at 31 % UTC.
On to “1198476 (antisense kA*kG*dG*dT*dA*dT*dA*dA*d[5mC]*dT*dG*eG*kG*e[5mC]*kA*eA) [Compound 1198476]”, for which the “YAP1 (% UTC)” value under setting [7] is reported as 31 % UTC.
Regarding “1198201 (kA*kA*dA*dT*dT*dG*dT*d[5mC]*dT*d[5mC]*dA*eT*eG*e[5mC]*k[5mC]*kT; antisense) [Compound 1198201]”, the “YAP1 (% UTC)” value under setting [8] is listed as 34 % UTC.
Consider “1197210 (antisense kA*kT*kG*dT*dA*dA*dT*dA*dT*dT*dG*d[5mC]*dA*kA*kT*k[5mC]) [Compound 1197210]”, for which the “YAP1 (% UT)” value (Yap1 mRNA, percent of untreated control, modified oligonucleotides targeting SEQ ID NO: 1 and 2, Table 47) was 105 % UT.
Take “1198771 (kT*e[5mC]*kT*dT*dA*dT*dA*dT*dG*dG*dT*dT*eT*eT*kG*kT; antisense) [Compound 1198771]”: the “YAP1 (% UTC)” value under setting [3] was 85 % UTC.
Consider “1198394 (kT*dT*dT*dT*dA*d[5mC]*dA*dT*dT*dA*dG*kG*eA*kA*e[5mC]*kA; antisense) [Compound 1198394]”, for which the “YAP1 (% UTC)” value under setting [9] came to 63 % UTC.
Regarding “1198676 (antisense kT*k[5mC]*dA*dG*dA*dT*dT*dT*dA*dG*dG*dA*kT*eG*k[5mC]*eA) [Compound 1198676]”, the “YAP1 (% UTC)” value under setting [3] is listed as 52 % UTC.
As to “1197251 (antisense kT*kT*kT*dG*mG*dA*dA*dG*dA*dT*d[5mC]*dT*dG*kA*kA*kA) [Compound 1197251]”, the “YAP1 (% UT)” value under setting [4] worked out at 74 % UT.
Regarding “1198660 (antisense kG*kG*dA*dA*dG*dA*dT*d[5mC]*dT*dG*dA*dA*kA*e[5mC]*kT*e[5mC]) [Compound 1198660]”, under setting [3], the “YAP1 (% UTC)” value is given as 66 % UTC.
With “1198623 (k[5mC]*kT*kA*dA*dG*dT*dA*dA*dG*dG*dT*dT*kT*k[5mC]*k[5mC]*e[5mC]; antisense) [Compound 1198623]”, the “YAP1 (% UT)” value under setting [6] was found to be 9 % UT.
As to “1198381 (kT*dA*dG*dA*dG*dT*dA*dT*dG*dT*dG*kG*e[5mC]*kA*eA*kT; antisense) [Compound 1198381]”, the “YAP1 (% UTC)” value under setting [9] is given as 19 % UTC.
Consider “1198822 (kT*kA*dT*dA*dA*d[5mC]*dT*dG*dG*dG*d[5mC]*kA*eA*kA*eT*kT; antisense) [Compound 1198822]”, for which the “YAP1 (% UT)” value under setting [5] was 97 % UT.
As to “1197204 (antisense k[5mC]*kA*kA*d[5mC]*dT*d[5mC]*dT*dT*dA*dT*dA*dT*dG*kG*kT*kT) [Compound 1197204]”, the “YAP1 (% UT)” value under setting [10] came to 89 % UT.
In the case of “1198619 (kT*kA*kA*dG*dG*dT*dT*dT*d[5mC]*d[5mC]*d[5mC]*dA*kG*kA*kT*eT) [Compound 1198619]”, under setting [6], the “YAP1 (% UT)” value was found to be 53 % UT.
For the substance “1198737 (k[5mC]*eT*kG*dA*dG*dG*dT*dA*dT*dA*dA*d[5mC]*eT*eG*kG*kG; antisense) [Compound 1198737]”, the “YAP1 (% UTC)” value under setting [3] is given as 24 % UTC.
As for “1198665 (antisense kT*kG*d[5mC]*dT*dT*dT*dG*dG*dA*dA*dG*dA*kT*e[5mC]*kT*eG) [Compound 1198665]”, the “YAP1 (% UTC)” value under setting [3] was found to be 38 % UTC.
In the case of “1198432 (kT*dA*dA*dT*dA*dT*dT*dG*d[5mC]*dA*dA*kT*e[5mC]*kT*eG*kT; antisense) [Compound 1198432]”, the “YAP1 (% UTC)” value under setting [9] was found to be 70 % UTC.
As to “1198805 (antisense kA*kT*dT*dG*dT*d[5mC]*dT*d[5mC]*dA*dT*dG*k[5mC]*e[5mC]*kT*eT*kA) [Compound 1198805]”, the “YAP1 (% UT)” value under setting [5] is reported as 23 % UT.
As to “1198761 (kT*eT*kT*dA*dG*dG*dA*dT*dG*d[5mC]*dA*dT*eG*eG*kT*kT; antisense) [Compound 1198761]”, under setting [11], the “YAP1 (% UTC)” value is given as 42 % UTC.
For the substance “1198647 (kG*kG*dT*dA*dT*dA*dA*d[5mC]*dT*dG*dG*dG*k[5mC]*eA*kA*eA) [Compound 1198647]”, under setting [8], the “YAP1 (% UTC)” value was 47 % UTC.
On to “1095594 (antisense k[5mC]*kT*dG*dA*dG*dG*dT*dA*dT*dA*dA*e[5mC]*eT*eG*kG*kG) [Compound 1095594]”, for which, under setting [2], the “YAP1 (% UTC)” value was found to be 27 % UTC.
Regarding “1198671 (antisense kT*kT*dT*dA*dG*dG*dA*dT*dG*d[5mC]*dA*dT*kG*eG*kT*eT) [Compound 1198671]”, the “YAP1 (% UTC)” value under setting [3] was determined as 26 % UTC.
Regarding “1198721 (kA*eT*kG*dG*dA*dA*dA*dT*dT*dG*dT*d[5mC]*eT*e[5mC]*kA*kT; antisense) [Compound 1198721]”, under setting [11], the “YAP1 (% UTC)” value came out at 48 % UTC.
As for “1197205 (antisense kG*kA*k[5mC]*dA*dA*d[5mC]*dT*d[5mC]*dT*dT*dA*dT*dA*kT*kG*kG) [Compound 1197205]”, the “YAP1 (% UT)” value under setting [10] is 67 % UT.
Take “1198377 (kA*dT*dG*dG*dA*dA*dA*dT*dT*dG*dT*k[5mC]*eT*k[5mC]*eA*kT; antisense) [Compound 1198377]”: under setting [9], the “YAP1 (% UTC)” value turned out to be 30 % UTC.
On to “1198928 (kG*kT*dG*d[5mC]*dT*dT*dT*dG*dG*dA*dA*kG*dA*kT*d[5mC]*kT; antisense) [Compound 1198928]”, for which the “YAP1 (% UTC)” value under setting [1] was found to be 28 % UTC.
Consider “1198245 (k[5mC]*kA*dG*dA*dT*dT*dT*dA*dG*dG*dA*eT*eG*e[5mC]*kA*kT; antisense) [Compound 1198245]”, for which the “YAP1 (% UTC)” value under setting [2] turned out to be 46 % UTC.
For the substance “1198717 (kA*eA*kA*dT*dT*dG*dT*d[5mC]*dT*d[5mC]*dA*dT*eG*e[5mC]*k[5mC]*kT; antisense) [Compound 1198717]”, the “YAP1 (% UTC)” value under setting [11] is 41 % UTC.
Take “1198512 (kA*kA*d[5mC]*dT*d[5mC]*dT*dT*dA*dT*dA*dT*eG*kG*eT*kT*eT; antisense) [Compound 1198512]”: the “YAP1 (% UTC)” value under setting [7] was 62 % UTC.
In the case of “1197291 (k[5mC]*kT*kT*dT*mU*dA*d[5mC]*dA*dT*dT*dA*dG*dG*kA*kA*k[5mC]; antisense) [Compound 1197291]”, the “YAP1 (% UT)” value under setting [6] is 83 % UT.
